What was measured:
Type in all cases: cell-based
MR = target: T1, MR (Rattus norvegicus, UniProt P22199); assay: Transcriptional activation (luciferase) in HEK-293 cells, MR
T1 construct: expressed in transfected cells
T1 sequence (P22199 1-981): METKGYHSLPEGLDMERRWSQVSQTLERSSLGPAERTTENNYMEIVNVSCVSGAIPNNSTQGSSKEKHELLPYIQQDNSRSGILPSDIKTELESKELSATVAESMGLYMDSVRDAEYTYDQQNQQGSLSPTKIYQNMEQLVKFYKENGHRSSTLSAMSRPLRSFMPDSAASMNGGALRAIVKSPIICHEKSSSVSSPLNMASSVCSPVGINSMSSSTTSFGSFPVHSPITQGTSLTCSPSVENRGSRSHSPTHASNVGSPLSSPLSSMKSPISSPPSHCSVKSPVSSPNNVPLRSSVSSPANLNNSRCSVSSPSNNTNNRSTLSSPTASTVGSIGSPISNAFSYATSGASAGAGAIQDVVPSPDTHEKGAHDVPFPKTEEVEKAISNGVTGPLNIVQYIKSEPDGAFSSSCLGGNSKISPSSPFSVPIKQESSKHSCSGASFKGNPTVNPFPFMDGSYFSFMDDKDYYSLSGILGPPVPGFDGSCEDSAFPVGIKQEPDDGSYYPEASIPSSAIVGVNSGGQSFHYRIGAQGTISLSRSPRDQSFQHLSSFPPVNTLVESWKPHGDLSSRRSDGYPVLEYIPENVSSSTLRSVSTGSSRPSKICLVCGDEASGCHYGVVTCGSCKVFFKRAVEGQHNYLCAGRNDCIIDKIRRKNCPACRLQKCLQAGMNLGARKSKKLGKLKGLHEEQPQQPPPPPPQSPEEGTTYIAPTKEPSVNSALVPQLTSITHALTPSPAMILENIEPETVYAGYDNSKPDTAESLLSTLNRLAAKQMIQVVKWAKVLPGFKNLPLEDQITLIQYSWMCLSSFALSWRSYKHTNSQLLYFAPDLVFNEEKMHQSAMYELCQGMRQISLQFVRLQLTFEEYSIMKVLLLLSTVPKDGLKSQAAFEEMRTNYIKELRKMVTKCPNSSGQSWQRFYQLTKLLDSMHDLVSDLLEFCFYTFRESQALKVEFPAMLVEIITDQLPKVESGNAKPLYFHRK
Description: (§1) Rat GR, MR, PR, ER-α and ER-β were individually cloned into a pCR3.1 vector backbone. Sequencing was performed to verify the absence of any mutations. HEK-293 cells were plated at 90,000 cells per well of a 24 well plate in Dulbecco's Minimal Essential Media supplemented with 5% charcoal-stripped FBS. […] Luciferase assays were performed 48 h after transfection. Transcriptional activation values are represented as firefly luciferase normalized to Renilla luciferase.

GR = target: T2, GR (Rattus norvegicus, UniProt P06536); assay: Transcriptional activation (luciferase) in HEK-293 cells, GR
T2 construct: expressed in transfected cells
T2 sequence (P06536 1-795): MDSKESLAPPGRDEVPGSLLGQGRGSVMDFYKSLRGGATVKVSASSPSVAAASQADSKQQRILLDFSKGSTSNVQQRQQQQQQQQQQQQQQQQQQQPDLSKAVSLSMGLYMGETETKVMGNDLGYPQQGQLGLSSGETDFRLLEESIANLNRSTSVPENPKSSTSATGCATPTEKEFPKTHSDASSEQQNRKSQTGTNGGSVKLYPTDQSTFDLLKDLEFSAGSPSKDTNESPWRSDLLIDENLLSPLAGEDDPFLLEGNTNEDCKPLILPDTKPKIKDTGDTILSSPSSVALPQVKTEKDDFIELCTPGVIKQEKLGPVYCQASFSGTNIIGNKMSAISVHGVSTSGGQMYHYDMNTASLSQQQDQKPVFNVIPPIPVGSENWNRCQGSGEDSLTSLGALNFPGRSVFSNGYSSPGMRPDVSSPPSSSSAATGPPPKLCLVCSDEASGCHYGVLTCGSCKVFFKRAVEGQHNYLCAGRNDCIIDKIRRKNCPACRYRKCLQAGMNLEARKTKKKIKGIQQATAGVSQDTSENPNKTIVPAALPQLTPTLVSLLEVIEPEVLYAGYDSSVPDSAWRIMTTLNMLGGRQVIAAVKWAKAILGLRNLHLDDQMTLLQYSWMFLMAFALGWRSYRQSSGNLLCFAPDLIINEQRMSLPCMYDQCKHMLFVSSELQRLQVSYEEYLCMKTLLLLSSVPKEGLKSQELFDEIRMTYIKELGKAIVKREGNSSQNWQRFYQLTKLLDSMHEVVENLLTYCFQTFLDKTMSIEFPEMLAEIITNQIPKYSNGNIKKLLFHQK
Description: as §1

AR = target: T3, AR (Homo sapiens, UniProt P10275); assay: AR transactivation (GRE-LUC luciferase) in MDA-MB-231 cells; conditions: cells transfected with AR and GRE-LUC
T3 construct: expressed in transfected cells; host or cells: MDA-MB-231
Description: Though AR transactivation assay was performed in HEK-293 cells, the ability of ligands to function as agonists or antagonists depends on cellular microenvironment. […] The cells were treated 24 h after transfection and luciferase assay performed 48 h after transfection.

ER-β = target: T4, ER-β (Rattus norvegicus, UniProt Q62986); assay: Transcriptional activation (luciferase) in HEK-293 cells, ER-β; parameters: activation of ER-β: dose or concentration left out as unconfirmed
T4 construct: expressed in transfected cells
Description: as §1, with “FBS. The cells were transfected using Lipofectamine (Invitrogen, Carlsbad, CA) with […] GRE-LUC for GR, MR and PR and ERE-LUC for ER-α and ER-β, 0.5 ng CMV-LUC (Renilla luciferase) and 12.5-25 ng of the respective expression vector for each receptor.” for “FBS.”

[1] = test system: MDA-MB-231 breast cancer cells stably transfected with AR; assay: Proliferation of MDA-MB-231 cells stably transfected with AR (Coulter counter); conditions: 6 days
Description: MDA-MB-231 cells stably transfected with AR using lentivirus were treated with the indicated ligands for 6 days and the number of cells counted using Coulter counter.

[2] = agonist mode, all the tested concentrations

T4 sequence (Q62986 whole entry): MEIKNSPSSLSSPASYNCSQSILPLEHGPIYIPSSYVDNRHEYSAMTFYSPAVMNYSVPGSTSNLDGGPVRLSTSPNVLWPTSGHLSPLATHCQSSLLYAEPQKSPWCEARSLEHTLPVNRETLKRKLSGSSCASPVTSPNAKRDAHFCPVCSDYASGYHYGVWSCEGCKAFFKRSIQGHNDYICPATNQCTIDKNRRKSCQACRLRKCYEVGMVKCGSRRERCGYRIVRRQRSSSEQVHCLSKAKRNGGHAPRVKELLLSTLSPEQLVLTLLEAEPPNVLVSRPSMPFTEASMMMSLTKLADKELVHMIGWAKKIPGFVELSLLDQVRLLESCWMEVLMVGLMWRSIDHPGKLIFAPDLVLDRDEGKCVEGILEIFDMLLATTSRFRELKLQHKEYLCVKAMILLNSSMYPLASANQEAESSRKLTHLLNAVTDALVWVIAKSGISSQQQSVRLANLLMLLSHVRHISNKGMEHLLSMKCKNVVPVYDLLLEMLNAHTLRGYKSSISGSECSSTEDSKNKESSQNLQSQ
T3 sequence (P10275 whole entry): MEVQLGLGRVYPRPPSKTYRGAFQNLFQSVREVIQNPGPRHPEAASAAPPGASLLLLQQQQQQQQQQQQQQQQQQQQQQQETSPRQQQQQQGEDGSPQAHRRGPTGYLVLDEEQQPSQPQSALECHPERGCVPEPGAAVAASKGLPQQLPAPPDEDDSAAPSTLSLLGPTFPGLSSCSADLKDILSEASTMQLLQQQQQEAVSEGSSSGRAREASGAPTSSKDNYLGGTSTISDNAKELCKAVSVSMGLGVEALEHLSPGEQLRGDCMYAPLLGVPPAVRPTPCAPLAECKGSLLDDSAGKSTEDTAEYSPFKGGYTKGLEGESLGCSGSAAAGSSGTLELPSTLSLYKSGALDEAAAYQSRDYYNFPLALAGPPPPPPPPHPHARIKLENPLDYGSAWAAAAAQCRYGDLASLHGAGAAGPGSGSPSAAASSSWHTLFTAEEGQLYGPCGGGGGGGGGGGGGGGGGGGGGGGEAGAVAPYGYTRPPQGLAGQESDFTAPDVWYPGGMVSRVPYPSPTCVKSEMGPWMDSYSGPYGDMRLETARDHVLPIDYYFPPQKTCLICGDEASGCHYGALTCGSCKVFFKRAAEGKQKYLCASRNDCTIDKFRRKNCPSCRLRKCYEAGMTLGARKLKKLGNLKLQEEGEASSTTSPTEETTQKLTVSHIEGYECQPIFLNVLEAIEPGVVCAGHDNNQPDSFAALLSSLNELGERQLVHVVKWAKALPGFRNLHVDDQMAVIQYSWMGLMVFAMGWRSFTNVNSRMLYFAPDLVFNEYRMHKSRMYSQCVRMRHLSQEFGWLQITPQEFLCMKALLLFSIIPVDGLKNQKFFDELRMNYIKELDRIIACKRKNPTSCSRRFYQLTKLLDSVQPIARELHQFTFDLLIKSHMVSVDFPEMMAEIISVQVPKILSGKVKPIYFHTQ

| Structure (SMILES) | receptor-mediated transactivation of MR (stimulate or inhibit) (MR) | receptor-mediated transactivation of GR (stimulate or inhibit) (GR) | AR agonist activity (transactivation) (AR) | receptor-mediated transactivation of ERβ (stimulate or inhibit) (ER-β) | proliferation (number of cells) [1] | MR-mediated transactivation (MR; [2]) | aldosterone-induced MR-mediated transactivation (MR; antagonist mode) | GR-mediated transactivation (GR; [2]) | dexamethasone-induced GR-mediated transactivation (GR; antagonist mode) | activation of ER-β (ER-β; agonist mode, highest tested concentration) | 17β-estradiol-induced ER-β activity (ER-β; antagonist mode) |
| --- | --- | --- | --- | --- | --- | --- | --- | --- | --- | --- | --- |
| C[C@](O)(COc1ccc(C#N)cc1)C(=O)Nc1ccc(C#N)c(C(F)(F)F)c1 [Formula IX, (S)-N-(4-Cyano-3-(trifluoromethyl)phenyl)-3-(4-cyanophenoxy)-2-hydroxy-2-methylpropanamide] | do not stimulate or inhibit | do not stimulate or inhibit | agonists of AR | do not stimulate or inhibit | inhibited the proliferation | – | – | – | – | – | – |
| C[C@](O)(COc1ccc(C#N)cc1)C(=O)Nc1ccc(C#N)c(Cl)c1 [Formula VIII, (S)-N-(3-chloro-4-cyanophenyl)-3-(4-cyanophenoxy)-2-hydroxy-2-methylpropanamide] | do not stimulate or inhibit | do not stimulate or inhibit | agonists of AR | do not stimulate or inhibit | inhibited the proliferation | did not induce | failed to alter | did not induce | failed to alter | failed to activate | failed to alter |

Reference: US12685719B2, “Treatment of breast cancer with selective androgen receptor modulators and cyclin-dependent kinase 4/6 inhibitors” (UNIVERSITY OF TENNESSEE RESEARCH FOUNDATION, priority 2012, dated 2026)
